From US8865688B2, “Compositions and methods for treatment of bowel diseases with granulated mesalamine” (priority 2008, dated 2014)
Where “and” joins values, the source holds several entries; their conditions need not be identical. Equal values may be shown once. Read-outs that look alike come from different tables or passages of the source. Each block holds one compound with its values, some of them ahead of it.

Assays:
[1] = Effect of high fat meal on absorption of 1.6 g mesalamine granules in sachet, crossover, healthy subjects; format: in vivo, human; conditions: for Tmax following a high-fat meal: 1.6 g granulated mesalamine (2×0.8 g); for Effect of high fat meal on plasma Cmax: fed vs fasted, 80%:125% rule
CYP1A2 = biological target: T1, CYP1A2 (Homo sapiens, UniProt P05177); test: In vitro drug-drug interaction study, human liver microsomes; format: in vitro ADME
T1 construct: In an in vitro study using human liver microsomes; from tissue; host or cells: human liver microsomes
T1 sequence (P05177 1-516): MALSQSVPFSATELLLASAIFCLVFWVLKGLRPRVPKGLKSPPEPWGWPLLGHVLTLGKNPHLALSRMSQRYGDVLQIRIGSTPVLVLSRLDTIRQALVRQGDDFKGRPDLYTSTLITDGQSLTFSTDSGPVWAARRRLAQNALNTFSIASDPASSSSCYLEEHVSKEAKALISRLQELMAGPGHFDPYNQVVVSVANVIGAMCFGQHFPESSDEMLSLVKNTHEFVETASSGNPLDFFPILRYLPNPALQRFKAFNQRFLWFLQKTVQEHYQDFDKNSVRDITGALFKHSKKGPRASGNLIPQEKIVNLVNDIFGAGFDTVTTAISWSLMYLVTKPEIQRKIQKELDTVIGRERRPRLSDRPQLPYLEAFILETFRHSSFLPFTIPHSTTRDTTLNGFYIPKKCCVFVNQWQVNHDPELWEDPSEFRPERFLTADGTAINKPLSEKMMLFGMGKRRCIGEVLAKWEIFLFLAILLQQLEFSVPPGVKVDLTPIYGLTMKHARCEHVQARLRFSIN

CYP2C9 = CYP2C9 (Homo sapiens, UniProt P11712); test: as above; format: in vitro ADME
CYP2C9, sequence (P11712 whole entry): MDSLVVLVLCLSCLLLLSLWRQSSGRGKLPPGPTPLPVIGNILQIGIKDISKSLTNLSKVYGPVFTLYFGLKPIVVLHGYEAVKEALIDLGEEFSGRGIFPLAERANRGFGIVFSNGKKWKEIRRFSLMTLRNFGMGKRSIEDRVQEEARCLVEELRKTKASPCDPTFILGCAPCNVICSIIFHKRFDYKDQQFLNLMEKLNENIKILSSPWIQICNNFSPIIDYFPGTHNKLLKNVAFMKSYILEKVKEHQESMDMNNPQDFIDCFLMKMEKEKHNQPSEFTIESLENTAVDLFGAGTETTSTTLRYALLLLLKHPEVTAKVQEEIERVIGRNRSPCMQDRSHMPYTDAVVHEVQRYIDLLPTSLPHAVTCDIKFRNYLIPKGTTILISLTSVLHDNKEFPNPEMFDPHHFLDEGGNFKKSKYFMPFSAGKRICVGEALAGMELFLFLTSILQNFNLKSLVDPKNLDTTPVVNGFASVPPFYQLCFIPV

CYP2C19 = CYP2C19 (Homo sapiens, UniProt P33261); test: as above; format: in vitro ADME
CYP2C19, sequence (P33261 whole entry): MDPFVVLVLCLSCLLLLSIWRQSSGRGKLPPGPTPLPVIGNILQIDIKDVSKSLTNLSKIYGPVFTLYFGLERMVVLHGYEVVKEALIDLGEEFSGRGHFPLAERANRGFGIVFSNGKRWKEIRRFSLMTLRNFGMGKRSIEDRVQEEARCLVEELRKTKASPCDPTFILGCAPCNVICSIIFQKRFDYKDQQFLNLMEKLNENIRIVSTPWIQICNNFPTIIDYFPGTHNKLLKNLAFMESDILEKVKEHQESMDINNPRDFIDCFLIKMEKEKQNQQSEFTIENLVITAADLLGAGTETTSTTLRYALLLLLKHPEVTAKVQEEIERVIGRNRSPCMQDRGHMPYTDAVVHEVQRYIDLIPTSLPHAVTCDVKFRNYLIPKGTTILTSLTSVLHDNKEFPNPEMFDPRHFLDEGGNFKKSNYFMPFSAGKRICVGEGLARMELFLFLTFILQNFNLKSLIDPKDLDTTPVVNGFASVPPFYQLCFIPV

CYP2D6 = CYP2D6 (Homo sapiens, UniProt P10635); test: as above; format: in vitro ADME
CYP2D6, sequence (P10635 whole entry): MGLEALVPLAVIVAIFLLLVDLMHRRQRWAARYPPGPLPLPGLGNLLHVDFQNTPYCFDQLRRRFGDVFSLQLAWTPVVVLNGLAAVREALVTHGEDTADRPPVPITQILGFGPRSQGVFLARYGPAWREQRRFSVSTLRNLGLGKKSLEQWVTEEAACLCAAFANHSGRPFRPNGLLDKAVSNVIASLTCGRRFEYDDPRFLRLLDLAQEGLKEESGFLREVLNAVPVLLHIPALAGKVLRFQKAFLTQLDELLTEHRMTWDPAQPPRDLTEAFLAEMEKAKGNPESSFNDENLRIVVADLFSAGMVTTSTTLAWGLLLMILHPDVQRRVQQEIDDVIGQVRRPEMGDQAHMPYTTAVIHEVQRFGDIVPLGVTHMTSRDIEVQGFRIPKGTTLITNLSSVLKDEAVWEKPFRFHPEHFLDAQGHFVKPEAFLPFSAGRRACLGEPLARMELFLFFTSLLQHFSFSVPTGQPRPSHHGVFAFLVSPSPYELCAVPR

CYP3A4 = CYP3A4 (Homo sapiens, UniProt P08684); test: as above; format: in vitro ADME
CYP3A4, sequence (P08684 whole entry): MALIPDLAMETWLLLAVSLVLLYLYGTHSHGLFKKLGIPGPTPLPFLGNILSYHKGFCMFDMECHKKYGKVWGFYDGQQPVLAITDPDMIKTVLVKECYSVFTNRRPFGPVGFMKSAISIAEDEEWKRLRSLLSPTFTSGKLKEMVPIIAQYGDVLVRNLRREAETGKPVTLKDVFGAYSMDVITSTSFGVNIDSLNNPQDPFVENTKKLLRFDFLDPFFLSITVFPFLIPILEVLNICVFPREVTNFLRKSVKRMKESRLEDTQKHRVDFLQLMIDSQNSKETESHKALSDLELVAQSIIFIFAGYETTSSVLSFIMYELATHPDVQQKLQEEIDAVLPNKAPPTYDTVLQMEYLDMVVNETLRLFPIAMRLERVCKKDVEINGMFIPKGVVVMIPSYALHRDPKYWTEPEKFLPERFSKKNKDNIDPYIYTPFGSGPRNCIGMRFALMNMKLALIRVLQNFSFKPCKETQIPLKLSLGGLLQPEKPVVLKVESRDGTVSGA

mice [2] = test: Dietary carcinogenicity study; format: in vivo; conditions: 2000 mg/kg/day
Procedure: (§1) These doses are about 2.6 and 5.4 times the recommended human dose of granulated mesalamine capsules of 1.5 g/day (30 mg/kg if 50 kg body weight assumed or 1110 mg/m^2), respectively, based on body surface area. Mesalamine was negative in the Ames test, the mouse lymphoma cell (L5178Y/TK+/−) forward mutation test, the sister chromatid exchange assay in the Chinese hamster bone marrow test, and the mouse bone marrow micronucleus test.

rats [3] = test: Dietary carcinogenicity study; format: in vivo; conditions: doses as high as 480 mg/kg/day
Procedure: as §1

Ames test = format: cell-based
Procedure: as §1

[4] = tested on: mouse lymphoma cell (L5178Y/TK+/−); test: Mouse lymphoma cell forward mutation test; format: cell-based
Procedure: as §1

[5] = tested on: Chinese hamster bone marrow; test: Sister chromatid exchange assay in the Chinese hamster bone marrow test; conditions: in vivo
Procedure: as §1

rats [6] = test: Fertility and reproductive performance study; format: in vivo; conditions: oral doses up to 320 mg/kg
rats [7] = test: 13-week and 26-week oral toxicity studies (renal toxicity); format: in vivo
Excerpt: (§2) Animal studies with mesalamine (13-week and 26-week oral toxicity studies in rats, and 26-week and 52-week oral toxicity studies in dogs) have shown the kidney to be the major target organ of mesalamine toxicity.

dogs = test: 26-week and 52-week oral toxicity studies (renal toxicity); format: in vivo; conditions: oral 60 mg/kg/day (about 1.1 times the human dose) or higher
Excerpt: as §2

rats [8] = test: Reproduction studies; conditions: rat, in vivo
rabbits = test: Reproduction studies; conditions: rabbit, in vivo
[9] = Detection in human breast milk; conditions: in vivo
[10] = Steady state pharmacokinetics, 3 treatments of 4 days: Asacol 800 mg BID, granulated mesalamine formulation 800 mg BID and 1600 mg QD; format: in vivo, human; conditions: for Tmax: median (range); for Systemic exposure, QD versus BID regimen: granulated mesalamine formulation 1600 mg QD vs 800 mg BID
Procedure: In a study of 3 treatments in 3 study periods, each separated by a minimum washout of 7 days, treatments were administered orally, and were as follows:
Subjects received treatments A, B, and C, with each administered during one of the three 4-day study treatment periods.
Each treatment regimen lasted for 4 days and was followed by at least a 7 day washout period.

[11] = human, in vivo
mice [12] = conditions: mouse, in vivo
rats [13] = conditions: rat, in vivo
[14] = human, in vivo, 1600 mg
clinical [15] = conditions: human, in vivo
clinical [16] = conditions: human, in vivo, 1600 mg
[17] = In vitro plasma protein binding
[18] = Single and multiple oral dose pharmacokinetics of 1.5 g granulated mesalamine formulation, crossover, healthy subjects, fasting; conditions: for AUC(0-t): AUC0-24, plasma, n = 24; for AUC(0-t) / Cmax: mean ±SD; for Tmax: median (range)
in vitro = conditions: plasma
[19] = granulated mesalamine formulation
[20] = granulated mesalamine formulation administered BID
[21] = granulated mesalamine formulation administered QD
[22] = human, plasma, oral, 800 mg, AUCC, Day 4, after MP 800 mg BID, converted from μmol * h/L, read-out: AUC
[23] = human, plasma, oral, 800 mg, AUCC, Day 4, after Treatment A Asacol 800 mg BID, mean ± SD, read-out: AUC
[24] = human, plasma, oral, 800 mg, AUCC, Day 4, after Treatment B MP 800 mg BID, mean ± SD, read-out: AUC
[25] = human, plasma, oral, 800 mg, Day 4, after Asacol 800 mg BID, converted from μmol/L, mean ± SD
[26] = human, plasma, oral, 800 mg, Day 4, after MP 800 mg BID, converted from μmol/L, mean ± SD
[27] = human, plasma, oral, 800 mg, plasma, Day 4, after Treatment A Asacol 800 mg BID, n = 28, mean ± SD
[28] = human, plasma, oral, 800 mg, plasma, Day 4, after Treatment B MP 800 mg BID, n = 28, mean ± SD
[29] = human, plasma, oral, 1600 mg, AUC0-24, Day 4, after MP 1600 mg QD, converted from μmol * h/L, read-out: AUC
[30] = human, plasma, oral, 1600 mg, AUC0-24, Day 4, after Treatment C MP 1600 mg QD, mean ± SD, read-out: AUC
[31] = human, plasma, oral, 1600 mg, Day 4, after MP 1600 mg QD, converted from μmol/L, mean ± SD
[32] = human, plasma, oral, 1600 mg, plasma, Day 4, after Treatment C MP 1600 mg QD, n = 28, mean ± SD
[33] = human, plasma, oral, Day 4, after MP 800 mg BID, time from first dose, read-out: Tmax
[34] = human, plasma, oral, Day 4, after MP 1600 mg QD, read-out: Tmax
[35] = MP 1600 mg QD versus MP 800 mg BID, geometric mean ratio
[36] = human, plasma, oral, 1.5 g, multiple dose 1.5 g QD, after 7 days
[37] = human, plasma, oral, 1.5 g, single dose 1.5 g

SMILES: Nc1ccc(O)c(C(=O)O)c1 [Mesalamine (5-ASA), 5-aminosalicylic acid]
Increase in AUC0-inf following a high-fat meal ([1]; 1.6 g granulated mesalamine): 11%
Increase in AUC0-last following a high-fat meal ([1]; 1.6 g granulated mesalamine): 16%
Tmax following a high-fat meal [1]: prolonged
Increase in cumulative urinary excretion with a high fat meal ([1]; 1.6 g granules): 27%
Effect of high fat meal on plasma Cmax ([1]; 1.6 g granules, listed as 5-ASA): did not affect
Effect of high fat meal on plasma Cmax ([1]; 1.6 g granules, listed as mesalamine): equivalent
Inhibition of CYP1A2 (CYP1A2): not to inhibit
Inhibition of CYP2C9 (CYP2C9): not to inhibit
Inhibition of CYP2C19 (CYP2C19): not to inhibit
Inhibition of CYP2D6 (CYP2D6): not to inhibit
Inhibition of CYP3A4 (CYP3A4): not to inhibit
Carcinogenicity (mice [2]): not carcinogenic
Carcinogenicity (rats [3]): not carcinogenic
Ames test result (Ames test): negative
Forward mutation test result [4]: negative
Sister chromatid exchange assay result [5]: negative
Effect on fertility or reproductive performance (rats [6]): no effect
Renal finding (rats [7]; oral 40 mg/kg/day (about 0.20 times the human dose)): minimal to slight tubular injury
Renal finding (rats [7]; oral 160 mg/kg/day (about 0.90 times the human dose) or higher): renal lesions including tubular degeneration, tubular mineralization, and papillary necrosis
Renal finding (dogs): renal lesions including tubular atrophy, interstitial cell infiltration, chronic nephritis, and papillary necrosis
Reproduction study finding (rats [8]): no evidence of impaired fertility or harm to the fetus
Reproduction study finding (rabbits): no evidence of impaired fertility or harm to the fetus
Concentration detected in human breast milk [9]: low concentrations
Tmax ([10]; Day 4, after Asacol 800 mg BID): 16.0 (0, 24.0) h and 16.0 (0, 24.0)^e h
Steady state plasma concentrations as measured by Cmax, QD compared to BID [10, 19]: higher
Systemic exposure, QD versus BID regimen [10]: comparable
Time to maximum drug concentrations, mean [10, 20]: 11.00 h
Time to maximum drug concentrations, mean [10, 21]: 3.96 h
AUC ([10]; human, plasma, oral, 800 mg, AUCC, Day 4, after Asacol 800 mg BID, converted from μmol * h/L, read-out: AUC): 8.34 ± 7.5 ng·h/mL
AUC [10, 22]: 14800 ± 5500 ng·h/mL
AUC [10, 23]: 54.5 ± 49 µM·h
AUC [10, 24]: 97 ± 35.9 µM·h
Cmax [10, 25]: 1060 ± 1370 ng/mL
Cmax [10, 26]: 1820 ± 710 ng/mL
Cmax [10, 27]: 6.93 ± 8.99 µM
Cmax [10, 28]: 11.9 ± 4.65 µM
AUC [10, 29]: 14800 ± 6490 ng·h/mL
AUC [10, 30]: 96.5 ± 42.4 µM·h
Cmax [10, 31]: 3040 ± 1670 ng/mL
Cmax [10, 32]: 19.9 ± 10.9 µM
Tmax [10, 33]: 16 h
Tmax [10, 34]: 3 h
Increase in systemic exposure (AUC0-24) at steady state compared with a single dose [11]: 1.5 fold
Lethal single oral dose (mice [12]): 800 mg/kg
Lethal single oral dose (rats [13]): 1800 mg/kg
T1/2 [14]: 5.49 h
AUC(0-inf) (clinical [15]): 14000 ± 5000 ng·h/mL
AUC(0-t) (clinical [15]; AUC0-24): 11000 ± 5000 ng·h/mL
Cmax (clinical [15]; Cmax): 2100 ± 1100 ng/mL
Tmax (clinical [15]; Tmax): 4 h
half-life (clinical [16]): 5.49 h
fraction unbound at 2.5 μg/mL [17]: 0.57
t1/2 ([18]; single dose 1.5 g, harmonic mean (pseudo SD)): 9 ± 7 h

Tmax following a high-fat meal [1]: prolonged
Effect of high fat meal on overall (rate and) extent of absorption ([1]; 1.6 g granules): not affected
Effect of high fat meal on plasma Cmax ([1]; 1.6 g granules): equivalent
Inhibition of CYP1A2 (CYP1A2): not to inhibit
Inhibition of CYP2C9 (CYP2C9): not to inhibit
Inhibition of CYP2C19 (CYP2C19): not to inhibit
Inhibition of CYP2D6 (CYP2D6): not to inhibit
Inhibition of CYP3A4 (CYP3A4): not to inhibit
Concentration detected in human breast milk [9]: higher concentrations
AUC C/B Ratio (90% CI) [10, 35]: 93 (78, 112)
Cmax C/B Ratio (90% CI) [10, 35]: 118 (98, 143)
Steady state plasma concentrations as measured by Cmax, QD compared to BID [10, 19]: higher
Systemic exposure, QD versus BID regimen [10]: comparable
Time to maximum drug concentrations, mean [10, 20]: 11.68 h
Time to maximum drug concentrations, mean [10, 21]: 5.21 h
Cmax ratio, QD compared to BID ([10]; granulated mesalamine formulation, steady state): 118%
AUC ([10]; human, plasma, oral, 800 mg, AUC, AUCC, Day 4, after Asacol 800 mg BID, converted from μmol * h/L): 30700 ± 22200 ng·h/mL
AUC [10, 22]: 46400 ± 15400 ng·h/mL
AUC [10, 23]: 158 ± 114 µM·h
AUC [10, 24]: 238 ± 79.1 µM·h
Cmax [10, 25]: 2340 ± 1800 ng/mL
Cmax [10, 26]: 3610 ± 1230 ng/mL
Cmax [10, 27]: 12 ± 9.22 µM
Cmax [10, 28]: 18.5 ± 6.31 µM
AUC [10, 29]: 45800 ± 19700 ng·h/mL
AUC [10, 30]: 235 ± 101 µM·h
Cmax [10, 31]: 4500 ± 1820 ng/mL
Cmax [10, 32]: 23.1 ± 9.35 µM
Tmax [10, 33]: 16 h
Tmax [10, 34]: 3 h
T1/2 [14]: 10.05 h
fraction unbound at 2.5 μg/mL (in vitro): 0.22
half-life (clinical [16]): 10.1 h
Increase in systemic exposure (AUC0-24) at steady state compared with a single dose ([18]; 1.5 g granulated mesalamine formulation): 1.7 fold
AUC(0-inf) ([18]; human, plasma, oral, 1.5 g): 51000 ± 23000 ng·h/mL
AUC(0-t) [18, 36]: 37000 ± 9000 ng·h/mL
AUC(0-t) ([18]; human, plasma, oral, 1.5 g, single dose 1.5 g granulated mesalamine formulation, fasting): 26000 ± 6000 ng·h/mL
Cmax ([18]; human, plasma, oral, 1.5 g, plasma, multiple dose 1.5 g QD, after 7 days): 3400 ± 900 ng/mL
Cmax [18, 37]: 2800 ± 800 ng/mL
half-life ([18]; human, plasma, oral, 1.5 g, Mean half-lives, following single and multiple doses of granulated mesalamine formulation): 12 to 14 h
Tmax [18, 36]: 5 h
Tmax [18, 37]: 4 h
half-life ([18]; human, plasma, oral, 1.5 g, t1/2, multiple dose 1.5 g QD, after 7 days, harmonic mean (pseudo SD)): 14 ± 10 h
half-life ([18]; human, plasma, oral, 1.5 g, t1/2, single dose 1.5 g, harmonic mean (pseudo SD)): 12 ± 11 h
SMILES: CC(=O)Nc1ccc(O)c(C(=O)O)c1 [N-Ac-5-ASA, N-acetyl-5-aminosalicylic acid]
